Experimental data: PMC7283271, “ADP binding by the Culex quinquefasciatus mosquito D7 salivary protein enhances blood feeding on mammals” (Nature Communications, 2020)

Experiments:
Assay type in all cases: binding
[1] = molecular target: CxD7L1 (Culex quinquefasciatus, UniProt A0A1S4K3K8); assay: ITC; parameters: gene D7L1; mature protein, C-terminal 6x-His, HEK293
[2] = molecular target: T1, CxD7L2 (Culex quinquefasciatus, UniProt B0X6Z1); assay: ITC
T1 construct: gene D7L2; full-length mature protein, C-terminal 6x-His, HEK293
T1 sequence (B0X6Z1 21-313 limits assumed): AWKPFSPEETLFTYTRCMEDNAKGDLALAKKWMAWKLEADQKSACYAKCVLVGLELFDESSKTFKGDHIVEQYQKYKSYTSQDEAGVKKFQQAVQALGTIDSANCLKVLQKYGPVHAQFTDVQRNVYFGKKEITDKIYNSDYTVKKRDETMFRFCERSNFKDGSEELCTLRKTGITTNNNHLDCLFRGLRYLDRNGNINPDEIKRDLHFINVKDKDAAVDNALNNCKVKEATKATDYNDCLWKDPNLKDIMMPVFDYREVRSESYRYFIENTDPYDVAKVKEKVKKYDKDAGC

[3] = molecular target: T1, CxD7L2; assay: ITC (also with protein saturated with serotonin)

Chain of CxD7L1 (A0A1S4K3K8 17-311 limits assumed): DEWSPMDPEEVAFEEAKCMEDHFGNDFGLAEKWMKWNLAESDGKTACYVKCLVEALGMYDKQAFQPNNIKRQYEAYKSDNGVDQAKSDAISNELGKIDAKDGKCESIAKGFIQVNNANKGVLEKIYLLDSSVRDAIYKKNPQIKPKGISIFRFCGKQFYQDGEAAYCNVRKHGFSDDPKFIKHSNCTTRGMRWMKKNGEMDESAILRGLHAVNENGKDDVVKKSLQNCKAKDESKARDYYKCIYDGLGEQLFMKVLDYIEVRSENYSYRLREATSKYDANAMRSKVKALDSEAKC

| Compound | Kd [2] | further results |
| --- | --- | --- |
| Nc1ncnc2c1ncn2[C@@H]1O[C@H](COP(=O)(O)O)[C@@H](O)[C@H]1O [AMP] |  | Kd [1]: 77.5 nM |
| Nc1ncnc2c1ncn2[C@@H]1O[C@H](COP(=O)(O)OP(=O)(O)OP(=O)(O)O)[C@@H](O)[C@H]1O [ATP] |  | Kd [1]: 30.8 nM |
| NCCc1c[nH]cn1 [Histamine] | 383 nM |  |
| CCCCC/C=C\C\C=C/C=C/C=C/[C@@H](SC[C@H](NC(=O)CC[C@H](N)C(=O)O)C(=O)NCC(=O)O)[C@@H](O)CCCC(=O)O [LTC4] | 152 nM |  |
| CCCCC/C=C\C\C=C/C=C/C=C/[C@@H](SC[C@H](N)C(=O)NCC(=O)O)[C@@H](O)CCCC(=O)O [LTD4] |  | Kd [3]: 156 nM |
| CCCCC/C=C\C\C=C/C=C/C=C/[C@@H](SC[C@H](N)C(=O)O)[C@@H](O)CCCC(=O)O [LTE4] | 159 nM |  |
| NCCc1c[nH]c2ccc(O)cc12 [Serotonin] | 7.46 nM |  |
